Assays:
[1] = tested on: normal NK cells expanded with K562-aAPC; experiment: percent inhibition of viability; higher = more inhibition; settings: 72 h, IL-2 2.5 ng/mL
Method: (§1)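 Drug sensitivity and resistance testing on K562-aAPC-expanded normal NK cells: 5 concentrations (10-fold steps over a 10,000-fold range), 72 h at 37 °C, viability by CellTiter-Glo normalised to DMSO and benzethonium chloride controls; DSS from the fitted curve.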

[2] = tested on: NKL (IL-2 2.5 ng/mL); experiment: drug sensitivity score (DSS) (DSS units); higher = more sensitive; extreme values may be limits of the assay; settings: 72 h
[3] = tested on: KAI3 (IL-2 2.5 ng/mL); experiment: as above; settings: 72 h
[4] = tested on: normal primary NK cells, pool 1 (3 donors) (IL-2 2.5 ng/mL); experiment: as above; settings: 72 h
[5] = tested on: KHYG-1 (IL-2 2.5 ng/mL); experiment: as above; settings: 72 h
[6] = tested on: normal primary NK cells, pool 3 (3 donors) (IL-2 2.5 ng/mL); experiment: as above; settings: 72 h
[7] = tested on: NK-YS (IL-2 2.5 ng/mL); experiment: as above; settings: 72 h
[8] = tested on: NK-92 (IL-2 2.5 ng/mL); experiment: as above; settings: 72 h
[9] = tested on: YT (IL-2 2.5 ng/mL); experiment: as above; settings: 72 h
[10] = tested on: SNK-6 (IL-2 2.5 ng/mL); experiment: as above; settings: 72 h
[11] = tested on: normal primary NK cells, pool 1 (3 donors), resting (IL-2 0 ng/mL); experiment: as above; settings: 72 h
[12] = tested on: DERL-7 (IL-2 2.5 ng/mL); experiment: as above; settings: 72 h
[13] = tested on: normal primary NK cells, pool 2 (3 donors) (IL-2 2.5 ng/mL); experiment: as above; settings: 72 h
[14] = tested on: IMC-1 (IL-2 20 ng/mL); experiment: as above; settings: 72 h
[15] = tested on: normal NK cells expanded with K562-aAPC; experiment: as above; settings: 72 h; IL-2 2.5 ng/mL
Method: as §1

[16] = tested on: NKL (IL-2 2.5 ng/mL); experiment: percent inhibition of viability; higher = more inhibition; settings: 72 h
[17] = tested on: KAI3 (IL-2 2.5 ng/mL); experiment: as above; settings: 72 h
[18] = tested on: normal primary NK cells, pool 1 (3 donors) (IL-2 2.5 ng/mL); experiment: as above; settings: 72 h
[19] = tested on: KHYG-1 (IL-2 2.5 ng/mL); experiment: as above; settings: 72 h
[20] = tested on: normal primary NK cells, pool 3 (3 donors) (IL-2 2.5 ng/mL); experiment: as above; settings: 72 h
[21] = tested on: NK-YS (IL-2 2.5 ng/mL); experiment: as above; settings: 72 h
[22] = tested on: NK-92 (IL-2 2.5 ng/mL); experiment: as above; settings: 72 h
[23] = tested on: YT (IL-2 2.5 ng/mL); experiment: as above; settings: 72 h
[24] = tested on: SNK-6 (IL-2 2.5 ng/mL); experiment: as above; settings: 72 h
[25] = tested on: normal primary NK cells, pool 1 (3 donors), resting (IL-2 0 ng/mL); experiment: as above; settings: 72 h
[26] = tested on: DERL-7 (IL-2 2.5 ng/mL); experiment: as above; settings: 72 h
[27] = tested on: normal primary NK cells, pool 2 (3 donors) (IL-2 2.5 ng/mL); experiment: as above; settings: 72 h
[28] = tested on: IMC-1 (IL-2 20 ng/mL); experiment: as above; settings: 72 h

CC(C)N(CCCNC(=O)Nc1ccc(C(C)(C)C)cc1)C[C@H]1O[C@@H](n2cc(Br)c3c(N)ncnc32)[C@H](O)[C@@H]1O [SGC0946] (max concentration tested 10000 nM)
percent inhibition of viability [%]
Settings	1 nM	10 nM	100 nM	1000 nM	10000 nM
[1]	-2.37	-3.94	1.95	8.9	10.9
[16]	-15	-7.75	4.16	0.58	33.7
[17]	2.28	-1.4	-1.58	5.53	72.2
[18]	8.37	-3.22	1.91	-6.49	19
[19]	-5.1	-1.55	-1.47	1.03	17
[20]	-5.94	-2.43	8.64	3.42	22.6
[21]	-4.5	-0.39	3.77	-0.01	21.5
[22]	-2.74	-1.7	19.9	10.5	40.7
[23]	-3.26	-3.19	0.56	0.95	27.2
[24]	-6.32	-2.25	0.17	25.4	38.7
[25]	15.8	-4.32	5.19	-6.57	62.3
[26]	4.94	2.4	5.77	1.04	37
[27]	-1.67	-6.15	8.39	-1.8	25.8
[28]	-8.07	-3.94	-2.69	2.99	17.2

Settings	drug sensitivity score
[2]	1.63
[3]	4.84
[4]	0.32
[5]	0.48
[6]	1.29
[7]	0.7
[8]	3.88
[9]	1.23
[10]	4.92
[11]	2.93
[12]	1.92
[13]	0.89
[14]	0.74
[15]	0.11

Cc1cc(Nc2ncc(Cl)c(Nc3ccccc3S(=O)(=O)C(C)C)n2)c(OC(C)C)cc1C1CCNCC1 [Ceritinib] (max concentration tested 2500 nM)
percent inhibition of viability [%]
Settings	0.25 nM	2.5 nM	25 nM	250 nM	2500 nM
[1]	-2.81	-5.61	-7.59	-0.13	-2.11
[16]	-3.75	-12.6	-15.7	-9.51	-1.79
[17]	0.47	4.56	-2.83	3.89	7.4
[18]	-2.74	-3.9	0.34	4.28	50.2
[19]	0.86	-4.67	-2.14	-5.38	-4.91
[20]	-5.64	-4.98	-6.68	-5.81	0.68
[21]	-0.73	-3.11	-3.16	-7.84	-1.32
[22]	7.74	-3.66	-9.06	-14.7	-17.8
[23]	2.57	-0.77	-0.72	-2.37	3.15
[24]	10.1	11.8	6.18	-2.76	-12.8
[25]	-7.32	-13.8	7.94	12	69
[26]	3.63	5.92	-4.52	1.56	21.8
[27]	-8.08	-2.52	-12.5	-0.57	15.4
[28]	-2.25	-2.84	-3.12	-7.73	-4.42

Settings	drug sensitivity score
[2]	0.89
[3]	0
[4]	3.33
[5]	0
[6]	0
[7]	0.89
[8]	0
[9]	0
[10]	0
[11]	5.8
[12]	0.92
[13]	0.23
[14]	0.89
[15]	0.89

Cc1cc(OCc2nnc(SC3CCCC3)n2-c2cccnc2)ccc1-c1ccc(S(C)(=O)=O)cc1 [NMS-873] (max concentration tested 10000 nM)
percent inhibition of viability [%]
Settings	1 nM	10 nM	100 nM	1000 nM	10000 nM
[1]	0.72	5.79	5.95	24.3	101
[16]	11.2	14.7	26	52	106
[17]	3.12	7.92	11.3	35.3	105
[18]	6.16	-1.92	22	43.5	98.7
[19]	3.36	6	38	65.7	107
[20]	-2.38	0.99	24.8	27	99.8
[21]	6.01	11.3	46.8	84.8	107
[22]	-7.23	-12.4	12.5	70.3	107
[23]	-2.33	20.6	83.1	56.4	106
[24]	0.98	31.4	15.3	33.6	101
[25]	-8.11	-16.4	24.5	58.2	91.2
[26]	8.88	2.79	15.8	34.8	101
[27]	-5.68	4.07	30.6	39.7	97.8
[28]	2.03	32.2	95.6	39.2	101

Settings	drug sensitivity score
[2]	14.6
[3]	10.4
[4]	11.4
[5]	17.9
[6]	8.69
[7]	22.1
[8]	14.8
[9]	26.1
[10]	9.51
[11]	13.7
[12]	9.55
[13]	12.2
[14]	26.4
[15]	9.28

Reference: the supplement of paper PMC5908809
